From patent publication US10010614B2, “Derivatives of GLP-1 like peptides, and uses thereof” (Novo Nordisk A/S, priority 2013, dated 2018)
Read-outs that look alike come from different tables or passages of the source. Numbered stars: 1 amine (or outer) side, 2 acyl side, 3 side chain; on linkers, the order of the positions; unused ones are H or OH. Square brackets hold non-standard residues; d marks the D form. Side chains are listed from the residue outwards. Peptide text beside a SMILES is read from it. * marks the point of attachment. X2 = O=C(O)CCCCCCCCCCCCCCCCCCC(=O)NC[C@H]1CC[C@H](C(=O)N[C@@H](CCC(=O)NCCOCCOCCN*)C(=O)O)CC1; X4 = O=C(O)CCCCCCCCCCCCCCCCCCC(=O)N1CCC(C(=O)N[C@@H](CCC(=O)NCCCOCCOCCOCCCN*)C(=O)O)CC1; X3 = O=C(O)CCCCCCCCCCCCCCCCCCC(=O)N[C@@H](CCC(=O)NCCCOCCOCCOCCCNC(=O)COCC(=O)*)C(=O)O; C20 diacid = O=C(O)CCCCCCCCCCCCCCCCCCC(=O)*; εLys = N[C@@H](CCCCN[*:1])C(=O)[*:2]; Suc = O=C(CCC(=O)[*:2])[*:1]; AEEA = NCCOCCOCC(=O)O; Aib = CC(C)(N)C(=O)O

Assays:
human GLP-1 receptor [1] = target: T1, human GLP-1 receptor (Homo sapiens, UniProt P43220); assay: GLP-1 receptor binding, competitive binding assay (125I-GLP-1, SPA) on isolated membranes;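 also: test compounds added at a range of concentrations to membranes from cells expressing the human GLP-1 receptor, scored by displacement of labelled ligand, read with WGA SPA beads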
T1 construct: expressed in transfected cells; host or cells: membranes prepared from BHK cells (parent line BHKTS13), clone FCW467-12A
T1 sequence (P43220 24-463): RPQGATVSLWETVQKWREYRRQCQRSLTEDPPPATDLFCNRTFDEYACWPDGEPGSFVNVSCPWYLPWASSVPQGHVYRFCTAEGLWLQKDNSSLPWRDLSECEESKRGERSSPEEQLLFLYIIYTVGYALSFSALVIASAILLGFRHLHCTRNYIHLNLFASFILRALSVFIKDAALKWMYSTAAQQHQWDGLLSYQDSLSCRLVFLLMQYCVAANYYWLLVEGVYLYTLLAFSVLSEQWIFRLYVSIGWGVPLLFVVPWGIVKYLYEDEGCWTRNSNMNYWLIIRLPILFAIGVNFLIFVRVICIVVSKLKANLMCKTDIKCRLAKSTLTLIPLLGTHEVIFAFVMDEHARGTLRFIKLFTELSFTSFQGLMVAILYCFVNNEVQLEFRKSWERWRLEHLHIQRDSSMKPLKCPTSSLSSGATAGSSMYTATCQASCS

human GLP-1 receptor [2] = target: T1, human GLP-1 receptor; assay: In vitro potency, CRE luciferase reporter gene assay in BHK cells expressing the human GLP-1 receptor; format: cell-based; details: whole cell reporter gene assay, 3 h incubation, no HSA, averages of at least two replicates
Procedure: The purpose of this example is to test the activity, or potency, of the GLP-1 derivatives in vitro. The in vitro potency is the measure of human GLP-1 receptor activation in a whole cell assay.
Semaglutide was included for comparison.
In vitro potency was determined by measuring the response of the human GLP-1 receptor in a reporter gene assay. The assay was performed in a stably transfected BHK cell line that expresses the human GLP-1 receptor and contains the DNA for the cAMP response element (CRE) coupled to a promoter and the gene for firefly luciferase (CRE luciferase). When the human GLP-1 receptor is activated it results in the production of cAMP, which in turn results in the luciferase protein being expressed. When assay incubation is completed the luciferase substrate (luciferin) is added and the enzyme converts luciferin to oxyluciferin to produce bioluminescence. The luminescence is measured as the readout for the assay.
The cells used in this assay (clone FCW467-12A/KZ10-1) were BHK cells with BHKTS13 as a parent cell line. The cells were derived from a clone (FCW467-12A) that expresses the human GLP-1 receptor and were established by further transfection with CRE luciferase to obtain the current clone.
The cells were cultured at 5% CO2 in Cell Culture Medium. They were aliquoted and stored in liquid nitrogen. Before each assay an aliquot is taken up and washed twice in PBS before being suspended at the desired concentration in the assay specific buffer. For 96-well plates the suspension was made to give a final concentration of 5×10^3 cells/well.
The following chemicals were used in the assay: Pluronic F-68 (10%) (Gibco 2404), human serum albumin (HSA) (Sigma A9511), ovalbumin (Sigma A5503), DMEM w/o phenol red (Gibco 11880-028), 1 M Hepes (Gibco 15630), Glutamax 100× (Gibco 35050) and steadylite plus (PerkinElmer 6016757).
Cell Culture Medium consisted of DMEM medium with 10% FBS (Fetal Bovine Serum; Invitrogen 16140-071), 1 mg/ml G418 (Invitrogen 15140-122), 240 nM MTX (methotrexate; Sigma M9929) and 1% pen/strep (penicillin/streptomycin; Invitrogen 15140-122).
Assay Medium consisted of DMEM w/o phenol red, 10 mM Hepes and 1× Glutamax. The Assay Buffer consisted of 2% ovalbumin and 0.2% Pluronic F-68 in Assay Medium.
1) Cell stocks were thawed in a 37° C. water bath.
2) Cells were washed three times in PBS.
3) The cells were counted and adjusted to 5×10^3 cells/50 μl (1×10^5 cells/ml) in Assay Medium. A 50 μl aliquot of cells was transferred to each well in the assay plate.
4) Stocks of the test compounds and reference compounds were diluted to a concentration of 0.2 μM in Assay Buffer. Compounds were diluted 10-fold to give the following concentrations: 2×10^−7 M, […]; 2×10^−9 M, 2×10^−10 M, 2×10^−11 M, 2×10^−12 M, 2×10^−13 M, and 2×10^−14 M. 5) A 50 μl aliquot of compound or blank was transferred from the dilution plate to the assay plate. Compounds were tested at the following final concentrations: 1×10^−7 M, 1×10^−8 M; 1×10^−9 M, 1×10^−10 M, 1×10^−11 M, 1×10^−12 M, 1×10^−13 M, and 1×10^−14 M. 6) The assay plate was incubated for 3 h in a 5% CO2 incubator at 37° C. 7) The assay plate was removed from the incubator and allowed to stand at room temperature for 15 min. 8) A 100 μl aliquot of steadylite plus reagent was added to each well of the assay plate (reagent was light sensitive). 9) Each assay plate was covered with aluminum foil to protect it from light and shaken for 30 min at room temperature. 10) Each assay plate was read in a Packard TopCount NXT instrument. Calculations and Results
The data from the TopCount instrument were transferred to GraphPad Prism software. The software performs a non-linear regression (log(agonist) vs response).
A minimum of two replicates was measured for each sample. The reported values are averages of the replicates.

[3] = High HSA IC50 (nM), high serum albumin (2.0% HSA final assay concentration)
[4] = Low HSA IC50 (nM), low serum albumin (max. 0.001% final assay concentration)
[5] = high serum albumin (2.0% HSA final assay concentration), read-out: High HSA IC50
[6] = low serum albumin (max. 0.001% final assay concentration), read-out: Low HSA IC50

| IC50 (human GLP-1 receptor [1]; [5]) [nM] | IC50 (human GLP-1 receptor [1]; [6]) [nM] | SMILES | IC50 (human GLP-1 receptor [1]; [3]) [nM] | IC50 (human GLP-1 receptor [1]; [4]) [nM] | EC50 (human GLP-1 receptor [2]) [nM] |
| --- | --- | --- | --- | --- | --- |
|  |  | CC[C@H](C)[C@H](NC(=O)[C@H](Cc1ccccc1)NC(=O)[C@H](CCC(=O)O)NC(=O)[C@H](CCCNC(=N)N)NC(=O)[C@H](C)NC(=O)[C@H](C)NC(=O)[C@H](CCC(N)=O)NC(=O)[C@H](CCC(=O)O)NC(=O)[C@H](CCC(=O)O)NC(=O)[C@H](CC(C)C)NC(=O)[C@H](Cc1ccc(O)cc1)NC(=O)[C@H](CO)NC(=O)[C@H](CO)NC(=O)[C@@H](NC(=O)[C@H](CC(=O)O)NC(=O)[C@H](CO)NC(=O)[C@@H](NC(=O)[C@H](Cc1ccccc1)NC(=O)[C@@H](NC(=O)CNC(=O)[C@H](CCC(=O)O)NC(=O)C(C)(C)NC(=O)[C@@H](N)Cc1c[nH]cn1)[C@@H](C)O)[C@@H](C)O)C(C)C)C(=O)N[C@@H](C)C(=O)N[C@@H](Cc1c[nH]c2ccccc12)C(=O)N[C@@H](CC(C)C)C(=O)N[C@H](C(=O)N[C@@H](CCCNC(=N)N)C(=O)NCC(=O)N[C@@H](CCCNC(=N)N)C(=O)NCC(=O)N[C@@H](CCCCNC(=O)CCC(=O)NCCOCCOCCNC(=O)CC[C@H](NC(=O)[C@H]1CC[C@H](CNC(=O)CCCCCCCCCCCCCCCCCCC(=O)O)CC1)C(=O)O)C(=O)NCC(=O)NCC(=O)N[C@@H](CO)C(=O)N[C@@H](CCCCNC(=O)CCC(=O)NCCOCCOCCNC(=O)CC[C@H](NC(=O)[C@H]1CC[C@H](CNC(=O)CCCCCCCCCCCCCCCCCCC(=O)O)CC1)C(=O)O)C(=O)O)C(C)C [Example 23] (H-H[Aib]EGTFTSDVSSYLEEQAAREFIAWLVRGRGK([Suc-X2])GGSK([Suc-X2])-OH) | 201 | 1.4 | 0.022 |
| 194 | 0.82 | CC[C@H](C)[C@H](NC(=O)[C@H](Cc1ccccc1)NC(=O)[C@H](CCC(=O)O)NC(=O)[C@H](CCCNC(=N)N)NC(=O)[C@H](C)NC(=O)[C@H](C)NC(=O)[C@H](CCC(N)=O)NC(=O)[C@H](CCC(=O)O)NC(=O)[C@H](CCC(=O)O)NC(=O)[C@H](CC(C)C)NC(=O)[C@H](Cc1ccc(O)cc1)NC(=O)[C@H](CO)NC(=O)[C@H](CO)NC(=O)[C@@H](NC(=O)[C@H](CC(=O)O)NC(=O)[C@H](CO)NC(=O)[C@@H](NC(=O)[C@H](Cc1ccccc1)NC(=O)[C@@H](NC(=O)CNC(=O)[C@H](CCC(=O)O)NC(=O)C(C)(C)NC(=O)[C@@H](N)Cc1c[nH]cn1)[C@@H](C)O)[C@@H](C)O)C(C)C)C(=O)N[C@@H](C)C(=O)N[C@@H](Cc1c[nH]c2ccccc12)C(=O)N[C@@H](CC(C)C)C(=O)N[C@H](C(=O)N[C@@H](CCCNC(=N)N)C(=O)NCC(=O)N[C@@H](CCCNC(=N)N)C(=O)NCC(=O)N[C@@H](CCCCNC(=O)COCC(=O)NCCCOCCOCCOCCCNC(=O)CC[C@H](NC(=O)CCCCCCCCCCCCCCCCCCC(=O)O)C(=O)O)C(=O)NCC(=O)NCC(=O)N[C@@H](CO)C(=O)N[C@@H](CCCCNC(=O)COCC(=O)NCCCOCCOCCOCCCNC(=O)CC[C@H](NC(=O)CCCCCCCCCCCCCCCCCCC(=O)O)C(=O)O)C(=O)O)C(C)C [Example 22, N{Alpha}([Aib8,Glu22,Arg26,Arg34]-GLP-1-(7-37)-peptidyl)-N{Epsilon}[2-[2-[3-[2-[2-[3-[[(4S)-4-carboxy-4-(19-carboxynonadecanoylamino)butanoyl]amino]propoxy]ethoxy]ethoxy]propylamino]-2-oxoethoxy]acetyl]Lys-Gly-Gly-Ser-N{Epsilon}[2-[2-[3-[2-[2-[3-[[(4S)-4-carboxy-4-(19-carboxynonadecanoylamino)butanoyl]amino]propoxy]ethoxy]ethoxy]propylamino]-2-oxoethoxy]acetyl]Lys] (H-H[Aib]EGTFTSDVSSYLEEQAAREFIAWLVRGRGK(X3)GGSK(X3)-OH; N-terminus and C-terminus assumed) |  |  | 0.01 |
| 38 | 0.22 | CC[C@H](C)[C@H](NC(=O)[C@H](Cc1ccccc1)NC(=O)[C@H](CCC(=O)O)NC(=O)[C@H](CCCNC(=N)N)NC(=O)[C@H](C)NC(=O)[C@H](C)NC(=O)[C@H](CCC(N)=O)NC(=O)[C@H](CCC(=O)O)NC(=O)[C@H](CCC(=O)O)NC(=O)[C@H](CC(C)C)NC(=O)[C@H](Cc1ccc(O)cc1)NC(=O)[C@H](CO)NC(=O)[C@H](CO)NC(=O)[C@@H](NC(=O)[C@H](CC(=O)O)NC(=O)[C@H](CO)NC(=O)[C@@H](NC(=O)[C@H](Cc1ccccc1)NC(=O)[C@@H](NC(=O)CNC(=O)[C@H](CCC(=O)O)NC(=O)C(C)(C)NC(=O)[C@@H](N)Cc1c[nH]cn1)[C@@H](C)O)[C@@H](C)O)C(C)C)C(=O)N[C@@H](C)C(=O)N[C@@H](Cc1c[nH]c2ccccc12)C(=O)N[C@@H](CC(C)C)C(=O)N[C@H](C(=O)N[C@@H](CCCNC(=N)N)C(=O)NCC(=O)N[C@@H](CCCNC(=N)N)C(=O)NCC(=O)N[C@@H](CCCCNC(=O)COCCOCCNC(=O)COCCOCCNC(=O)COCCOCCNC(=O)COCCOCCNC(=O)[C@@H](N)CCCCNC(=O)[C@@H](N)CCCCNC(=O)CCCCCCCCCCCCCCCCCCC(=O)O)C(=O)NCC(=O)NCC(=O)N[C@@H](CO)C(=O)N[C@@H](CCCCNC(=O)COCCOCCNC(=O)COCCOCCNC(=O)COCCOCCNC(=O)COCCOCCNC(=O)[C@@H](N)CCCCNC(=O)[C@@H](N)CCCCNC(=O)CCCCCCCCCCCCCCCCCCC(=O)O)C(=O)O)C(C)C [Example 25] (H-H[Aib]EGTFTSDVSSYLEEQAAREFIAWLVRGRGK([AEEA-AEEA-AEEA-AEEA-εLys-εLys-C20 diacid])GGSK([AEEA-AEEA-AEEA-AEEA-εLys-εLys-C20 diacid])-OH; N-terminus and C-terminus assumed) |  |  | 0.01 |
|  |  | CC[C@H](C)[C@H](NC(=O)[C@H](Cc1ccccc1)NC(=O)[C@H](CCC(=O)O)NC(=O)[C@H](CCCNC(=N)N)NC(=O)[C@H](C)NC(=O)[C@H](C)NC(=O)[C@H](CCC(N)=O)NC(=O)[C@H](CCC(=O)O)NC(=O)[C@H](CCC(=O)O)NC(=O)[C@H](CC(C)C)NC(=O)[C@H](Cc1ccc(O)cc1)NC(=O)[C@H](CO)NC(=O)[C@H](CO)NC(=O)[C@@H](NC(=O)[C@H](CC(=O)O)NC(=O)[C@H](CO)NC(=O)[C@@H](NC(=O)[C@H](Cc1ccccc1)NC(=O)[C@@H](NC(=O)CNC(=O)[C@H](CCC(=O)O)NC(=O)C(C)(C)NC(=O)[C@@H](N)Cc1c[nH]cn1)[C@@H](C)O)[C@@H](C)O)C(C)C)C(=O)N[C@@H](C)C(=O)N[C@@H](Cc1c[nH]c2ccccc12)C(=O)N[C@@H](CC(C)C)C(=O)N[C@H](C(=O)N[C@@H](CCCNC(=N)N)C(=O)NCC(=O)N[C@@H](CCCNC(=N)N)C(=O)NCC(=O)N[C@@H](CCCCNC(=O)CCC(=O)NCCCOCCOCCOCCCNC(=O)CC[C@H](NC(=O)C1CCN(C(=O)CCCCCCCCCCCCCCCCCCC(=O)O)CC1)C(=O)O)C(=O)NCC(=O)NCC(=O)N[C@@H](CO)C(=O)N[C@@H](CCCCNC(=O)CCC(=O)NCCCOCCOCCOCCCNC(=O)CC[C@H](NC(=O)C1CCN(C(=O)CCCCCCCCCCCCCCCCCCC(=O)O)CC1)C(=O)O)C(=O)O)C(C)C [Example 21] (H-H[Aib]EGTFTSDVSSYLEEQAAREFIAWLVRGRGK([Suc-X4])GGSK([Suc-X4])-OH; N-terminus and C-terminus assumed) | 177 | 1.3 | 0.019 |
